Assay results taken from PubChem BioAssay AID248 (DTP/NCI, 2004).
Several values for one entry are separate records, joined by “and”; a condition that tells them apart may be missing. Equal values may be shown once. Toxic doses and inconclusive results are not listed. Rule as the data show it: active = T/C of 150% or more; inactive = T/C below 125%. Square brackets hold non-standard residues; d marks the D form. Peptide text beside a SMILES is read from it. ξ: configuration not given here. ξV = CC(C)C(N)C(=O)O

System: L1210 leukemia ip in BDF1 mice, survival T/C
Experiment: NCI In Vivo Anticancer Drug Screen. Data for tumor model L1210 Leukemia (intraperitoneal) in B6D2F1 (BDF1) mice
Conditions: endpoint: mean survival time, higher = longer survival
Method in brief: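 Survival endpoint. Drug-treated group vs vehicle group, expressed as T divided by C. Tumor passaged by transplantation.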

[1] = dose: 100.0 mg/kg/injection, schedule: Q01DX009 (ip), vehicle: saline with Tween-80
[2] = dose: 100.0 mg/kg/injection, schedule: Q04DX003 (ip), vehicle: saline with Tween-80
[3] = dose: 200.0 mg/kg/injection, schedule: Q01DX009 (ip), vehicle: saline with Tween-80
[4] = dose: 200.0 mg/kg/injection, schedule: Q04DX003 (ip), vehicle: saline with Tween-80
[5] = dose: 400.0 mg/kg/injection, schedule: Q01DX009 (ip), vehicle: saline with Tween-80
[6] = dose: 400.0 mg/kg/injection, schedule: Q04DX003 (ip), vehicle: saline with Tween-80
[7] = dose: 75.0 mg/kg/injection, schedule: Q01DX001 (ip), vehicle: other
[8] = dose: 100.0 mg/kg/injection, schedule: Q04DX003 (ip), vehicle: saline
[9] = dose: 200.0 mg/kg/injection, schedule: Q04DX003 (ip), vehicle: saline
[10] = dose: 400.0 mg/kg/injection, schedule: Q04DX003 (ip), vehicle: saline
[11] = dose: 100.0 mg/kg/injection, schedule: Q01DX009 (ip), vehicle: saline
[12] = dose: 200.0 mg/kg/injection, schedule: Q01DX009 (ip), vehicle: saline
[13] = dose: 12.5 mg/kg/injection, schedule: Q01DX009 (ip), vehicle: Klucel (hydroxypropylcellulose) (HPC)
[14] = dose: 25.0 mg/kg/injection, schedule: Q01DX009 (ip), vehicle: Klucel (hydroxypropylcellulose) (HPC)
[15] = dose: 100.0 mg/kg/injection, schedule: Q01DX001 (ip), vehicle: saline with Tween-80
[16] = dose: 100.0 mg/kg/injection, schedule: Q04DX002 (ip), vehicle: saline with Tween-80
[17] = dose: 200.0 mg/kg/injection, schedule: Q04DX002 (ip), vehicle: saline with Tween-80
[18] = dose: 100.0 mg/kg/injection, schedule: Q04DX003 (ip), vehicle: Klucel (hydroxypropylcellulose) (HPC)
[19] = dose: 200.0 mg/kg/injection, schedule: Q04DX003 (ip), vehicle: Klucel (hydroxypropylcellulose) (HPC)
[20] = dose: 400.0 mg/kg/injection, schedule: Q04DX003 (ip), vehicle: Klucel (hydroxypropylcellulose) (HPC)

Measured: T/C

O=C(O)CNC(=O)Nc1ccccc1
inactive: [1] 97 % of control | [2] 100 % of control | [3] 95 % of control | [4] 96 % of control | [5] 91 % of control | [6] 97 % of control

Brc1ccccc1C[n+]1cccc2ccccc21
inactive: [7] 101 % of control

CC(=O)OCC(OC(C)=O)C(OC(C)=O)C(OC(C)=O)C(O)CO (stereo unspecified)
inactive: [8] 96 % of control | [9] 96 % of control | [10] 96 % of control

COCBr
inactive: [11] 110 % of control | [8] 103 % of control | [12] 101 % of control | [9] 103 % of control | [10] 94 % of control

COc1cc2cc(C)[nH]c2cc1OC
inactive: dose: 50.0 mg/kg/injection, schedule: Q01DX001 (ip), vehicle: saline 101 % of control | dose: 100.0 mg/kg/injection, schedule: Q01DX001 (ip), vehicle: saline 95 % of control | dose: 200.0 mg/kg/injection, schedule: Q01DX001 (ip), vehicle: saline 98 % of control

O=C1C=CC(=Nc2cc(Cl)c(O)c(Cl)c2)C(Cl)=C1
inactive: [13] 96 % of control | [14] 96 % of control | dose: 50.0 mg/kg/injection, schedule: Q01DX009 (ip), vehicle: Klucel (hydroxypropylcellulose) (HPC) 92 % of control

CN(Cc1cccc(Cl)c1)C(=O)Nc1ccccc1Cl
inactive: dose: 100.0 mg/kg/injection, schedule: Q04DX002 (ip), vehicle: Klucel (hydroxypropylcellulose) (HPC) 104 % of control | dose: 200.0 mg/kg/injection, schedule: Q04DX002 (ip), vehicle: Klucel (hydroxypropylcellulose) (HPC) 104 % of control | dose: 400.0 mg/kg/injection, schedule: Q04DX002 (ip), vehicle: Klucel (hydroxypropylcellulose) (HPC) 104 % of control

O=[N+]([O-])c1ccc2nc(=S)[nH]n2c1
inactive: dose: 100.0 mg/kg/injection, schedule: Q01DX001 (ip), vehicle: acetone 97 % of control | dose: 200.0 mg/kg/injection, schedule: Q01DX001 (ip), vehicle: acetone 93 % of control | dose: 400.0 mg/kg/injection, schedule: Q01DX001 (ip), vehicle: acetone 98 % of control

COC(C#N)(Cc1ccccc1)Cc1ccccc1
inactive: [7] 92 % of control | dose: 150.0 mg/kg/injection, schedule: Q01DX001 (ip), vehicle: other 95 % of control

Cc1c2ccccc2cc2cccc[n+]12
inactive: dose: 4.0 mg/kg/injection, schedule: Q01DX015 (ip), vehicle: saline 97 % of control | dose: 5.0 mg/kg/injection, schedule: Q01DX001 (ip), vehicle: saline 98 % of control | dose: 8.0 mg/kg/injection, schedule: Q01DX015 (ip), vehicle: saline 97 % of control | dose: 10.0 mg/kg/injection, schedule: Q01DX001 (ip), vehicle: saline 92 % of control | dose: 16.0 mg/kg/injection, schedule: Q01DX015 (ip), vehicle: saline 110 % of control | dose: 20.0 mg/kg/injection, schedule: Q01DX001 (ip), vehicle: saline 107 % of control | dose: 20.0 mg/kg/injection, schedule: Q04DX003 (ip), vehicle: saline 111 % of control | dose: 26.0 mg/kg/injection, schedule: Q04DX003 (ip), vehicle: saline 111 % of control and 118 % of control | dose: 32.0 mg/kg/injection, schedule: Q01DX015 (ip), vehicle: saline 95 % of control | dose: 40.0 mg/kg/injection, schedule: Q01DX001 (ip), vehicle: saline 112 % of control | dose: 40.0 mg/kg/injection, schedule: Q04DX003 (ip), vehicle: saline 116 % of control and 117 % of control | dose: 60.0 mg/kg/injection, schedule: Q04DX003 (ip), vehicle: saline 122 % of control

O=C(Nc1ccccc1)Nc1ccc([N+](=O)[O-])cc1O
inactive: [2] 103 % of control | [4] 113 % of control | [6] 100 % of control

Cc1ccccc1C(=O)C(C#N)c1ccccc1 (stereo unspecified)
inactive: dose: 25.0 mg/kg/injection, schedule: Q01DX009 (ip), vehicle: saline with Tween-80 103 % of control and 92 % of control | dose: 25.0 mg/kg/injection, schedule: Q04DX003 (ip), vehicle: saline with Tween-80 98 % of control | dose: 50.0 mg/kg/injection, schedule: Q01DX001 (ip), vehicle: saline with Tween-80 95 % of control | dose: 50.0 mg/kg/injection, schedule: Q01DX009 (ip), vehicle: saline with Tween-80 96 % of control and 103 % of control | dose: 50.0 mg/kg/injection, schedule: Q04DX002 (ip), vehicle: saline with Tween-80 97 % of control | dose: 50.0 mg/kg/injection, schedule: Q04DX003 (ip), vehicle: saline with Tween-80 102 % of control | [15] 90 % of control | [1] 113 % of control and 118 % of control | [16] 93 % of control and 111 % of control and 88 % of control | [17] 90 % of control

CC(C)=CCC/C(C)=C/Cn1ccccc1=O
inactive: [15] 98 % of control | dose: 200.0 mg/kg/injection, schedule: Q01DX001 (ip), vehicle: saline with Tween-80 98 % of control

CN1Cc2ccccc2-c2ccccc2C1
inactive: dose: 75.0 mg/kg/injection, schedule: Q01DX001 (ip), vehicle: saline 101 % of control

CC1C=CC(C)C(C(=O)c2ccccc2)C1C(=O)c1ccccc1 (stereo unspecified)
inactive: dose: 100.0 mg/kg/injection, schedule: Q01DX009 (ip), vehicle: Klucel (hydroxypropylcellulose) (HPC) 93 % of control | [1] 106 % of control | [18] 89 % of control | dose: 200.0 mg/kg/injection, schedule: Q01DX009 (ip), vehicle: Klucel (hydroxypropylcellulose) (HPC) 94 % of control | [3] 97 % of control | [19] 88 % of control | dose: 400.0 mg/kg/injection, schedule: Q01DX009 (ip), vehicle: Klucel (hydroxypropylcellulose) (HPC) 92 % of control | [5] 93 % of control | [20] 88 % of control

CCOCC(=O)Oc1ccc(/C=N/NC(N)=S)nc1
inactive: [16] 116 % of control | [17] 113 % of control | dose: 400.0 mg/kg/injection, schedule: Q04DX002 (ip), vehicle: saline with Tween-80 116 % of control

CC(C)(C#N)c1ccnc2ccccc12
inactive: [13] 89 % of control | [14] 100 % of control | dose: 25.0 mg/kg/injection, schedule: Q04DX003 (ip), vehicle: Klucel (hydroxypropylcellulose) (HPC) 104 % of control | dose: 50.0 mg/kg/injection, schedule: Q04DX003 (ip), vehicle: Klucel (hydroxypropylcellulose) (HPC) 96 % of control | [18] 96 % of control

Cc1nc2ccc(NC(=O)c3ccccc3)cc2o1
inactive: [18] 105 % of control | [19] 105 % of control | [20] 100 % of control

CC(C)C(NC(=O)CN)C(=O)O (stereo unspecified) (H-Gly-[ξV]-OH)
inactive: dose: 50.0 mg/kg/injection, schedule: Q04DX002 (ip), vehicle: saline 107 % of control | [11] 98 % of control | dose: 100.0 mg/kg/injection, schedule: Q04DX002 (ip), vehicle: saline 110 % of control | [8] 97 % of control | [12] 111 % of control | dose: 200.0 mg/kg/injection, schedule: Q04DX002 (ip), vehicle: saline 103 % of control | [9] 124 % of control | dose: 400.0 mg/kg/injection, schedule: Q01DX009 (ip), vehicle: saline 112 % of control | [10] 97 % of control
